The source of these data is ChEMBL document CHEMBL5729671, “Substituted pyrazolo[1,5-a]pyrazines as negative allosteric modulators of group II metabotropic glutamate receptor” (2023).

Chain of Metabotropic glutamate receptor 2 (Q14416 whole entry): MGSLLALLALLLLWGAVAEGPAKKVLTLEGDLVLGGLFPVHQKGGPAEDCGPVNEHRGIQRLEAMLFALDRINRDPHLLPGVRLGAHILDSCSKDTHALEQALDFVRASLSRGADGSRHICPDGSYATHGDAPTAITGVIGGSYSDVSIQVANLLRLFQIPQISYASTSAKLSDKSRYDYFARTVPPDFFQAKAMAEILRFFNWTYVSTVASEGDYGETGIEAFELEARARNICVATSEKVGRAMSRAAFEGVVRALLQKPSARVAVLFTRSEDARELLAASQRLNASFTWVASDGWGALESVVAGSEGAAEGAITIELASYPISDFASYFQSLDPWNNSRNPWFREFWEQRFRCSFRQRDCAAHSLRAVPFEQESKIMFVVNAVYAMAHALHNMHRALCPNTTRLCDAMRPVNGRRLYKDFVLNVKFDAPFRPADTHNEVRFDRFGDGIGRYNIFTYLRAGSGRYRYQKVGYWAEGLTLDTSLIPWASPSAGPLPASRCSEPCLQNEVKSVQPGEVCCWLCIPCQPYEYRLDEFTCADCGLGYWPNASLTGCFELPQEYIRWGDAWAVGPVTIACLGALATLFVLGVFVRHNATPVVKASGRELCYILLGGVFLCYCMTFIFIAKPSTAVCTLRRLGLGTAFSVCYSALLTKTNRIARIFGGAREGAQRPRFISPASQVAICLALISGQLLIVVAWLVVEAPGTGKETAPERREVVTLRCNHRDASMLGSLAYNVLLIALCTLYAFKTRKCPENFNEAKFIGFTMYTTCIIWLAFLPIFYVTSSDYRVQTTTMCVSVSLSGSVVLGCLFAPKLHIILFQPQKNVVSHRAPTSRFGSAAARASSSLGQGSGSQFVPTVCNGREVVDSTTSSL

This assay has as its target Metabotropic glutamate receptor 2 (Homo sapiens, UniProt Q14416). As to the kind of experiment: Assessment of mGlu2 Receptor Negative Allosteric Modulator Activity: Human mGlu2 receptor stable expressing cells were prepared and incubated. Luminescence signals by mGlu2 receptor stimulation were detected with FDSS7000 (Hamamatsu Photonics). The compound solution prepared above was added to a plate where cells and luminescent substrates were added (10 μl/well). After 120 seconds of the addition, EC80 Glutamate-containing solution was added thereto (10 μl/well), and luminescence signals were measured for 300 seconds after the addition (center wavelength: 465 nm) for calculation of RLU (Integration). mGlu2 receptor negative allosteric modulator activity of a compound was calculated by (100-100×(RLU of each compound and concentration)/(RLU of DMSO group)).The present compound was assessed with the above biological test, and the compounds with mGlu2 receptor negative allosteric modulator activity were found out.
Usually IC50 stands for the concentration needed to halve the response being measured. Turning to `C[C@H]1CN(c2ccc(Cl)c(F)c2)C(=O)c2c(-c3ccc4nccn4c3)cnn21`, the IC50 was 18 nM.
As for `Cc1cnc2ccc(-c3cnn4c3C(=O)N(c3ccc(C(F)(F)F)cc3)C[C@@H]4C)cn12`, the IC50 was 9.1 nM.
The figure for `CCc1cnc2ccc(-c3cnn4c3C(=O)N(c3ccc(C(F)(F)F)cc3)C[C@@H]4C)cn12` is 7.8 nM; for `C[C@H]1CN(c2ccc3c(c2)OC(F)(F)O3)C(=O)c2c(-c3ccc4nccn4c3)cnn21` it is 19 nM; for `C[C@H]1CN(c2ccc(C(F)(F)F)cn2)C(=O)c2c(-c3ccc4nccn4c3)cnn21` it is 16 nM.
With `Cc1cc(N2C[C@H](C)n3ncc(-c4ccc5ncc(C)n5c4)c3C2=O)ccc1F` the figure was 16 nM.
The figure for `C[C@H]1CN(c2ccc(Cl)cc2)C(=O)c2c(-c3ccc4nccn4c3)cnn21` is 26 nM.
